One may read the EC50 as the concentration needed to bring the measured effect to its halfway point. By IC50 is commonly meant the concentration that gives 50% inhibition. For orientation: AC50 means the concentration at which the activity in the assay is half-maximal.

The target in assay [1] is Luciferin 4-monooxygenase (Photinus pyralis, UniProt P08659). The assay is described as follows: inhibition of purified Photinus pyralis luciferase – biochemical, luminescence, dose response (AID 1891).
Assay [2] is described as follows: Luminescence Cell-Based Dose Confirmation HTS to Identify Inhibitors of Platelet Dense Granule Release. [Related pubchem assays: 1663 (Primary HTS), 1678 (Summary of Project)]. Type of assay: functional.
The target of assay [3] is T1, Heat shock factor protein 1 (Mus musculus, UniProt P38532).
T1 sequence (P38532 whole entry): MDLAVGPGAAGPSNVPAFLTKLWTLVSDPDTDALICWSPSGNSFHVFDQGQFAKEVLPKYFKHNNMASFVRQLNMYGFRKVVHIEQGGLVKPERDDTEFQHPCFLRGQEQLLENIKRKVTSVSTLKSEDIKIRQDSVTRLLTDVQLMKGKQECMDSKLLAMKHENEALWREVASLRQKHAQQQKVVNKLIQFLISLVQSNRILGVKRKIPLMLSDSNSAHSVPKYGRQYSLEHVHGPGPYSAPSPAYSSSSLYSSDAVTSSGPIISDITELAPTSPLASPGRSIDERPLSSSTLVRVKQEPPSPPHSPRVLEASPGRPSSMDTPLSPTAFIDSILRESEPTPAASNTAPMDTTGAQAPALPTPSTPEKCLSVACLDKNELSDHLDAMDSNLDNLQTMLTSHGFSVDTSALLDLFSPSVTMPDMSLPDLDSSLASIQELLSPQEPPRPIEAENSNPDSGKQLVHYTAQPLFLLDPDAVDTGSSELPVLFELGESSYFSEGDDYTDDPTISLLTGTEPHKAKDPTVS
The assay is described as follows: enhancement of HSF1-driven luciferase signal – cell-based, NIH3T3, luminescence, dose retest, confirmation (AID 435004).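 Further: stress induced by proteasome inhibitor MG132 added 30 min after compound; luciferase reporter driven by HSF1 response element in NIH3T3 cells; actives raise luminescence as potentiators of the MG132 stress response.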 Type of assay: functional.

Another assay has as its target Nonstructural protein 1 (Influenza A virus, UniProt Q194T2). Type of assay: functional, Influenza A virus (A/California/07/2009(H1N1)).
A short description of assay [4]: luciferase reporter signal suppression in cells – H4 neuroglioma cells, luminescence, dose response (AID 1990). Type of assay: functional, cell-based.
A short description of assay [5]: Luminescence Cell-Based Dose Response HTS to Identify Inhibitors of 5'UTR Stem-Loop Driven Prion Protein mRNA Translation in H4 Neuroglioblastoma Cells. [Related pubchem assays: 1827 (Project Summary), 1813 (Primary HTS)]. Type of assay: functional.
The nature of assay [6]: alpha-synuclein stem-loop luciferase translation blockers – H4 neuroglioma cells, luminescence, confirmation (AID 1988). Type of assay: functional, cell-based.
Assay [7] is described as follows: reduction of Shn3 3'UTR-driven luciferase in osteoblasts – cell-based, Clone20 osteoblasts, firefly luciferase, cherry-picked, dose response (AID 624132).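 Further: firefly luciferase luminescence from reporter carrying the Shn3 3'UTR in osteoblasts.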 Type of assay: functional.
Assay [8] in a line: loss of viability in HepG2 cells – cell-based, CellTiter-Glo, cherry-picked, cytotoxicity control for Shn3 inhibitor project, dose response (AID 624134). Type of assay: functional. (In general: In ATP-based viability assays light output follows the ATP content of the culture.)
The nature of assay [9]: non-specific 3'UTR reporter inhibition in Clone20-Shn3RL – cell-based, Renilla luciferase, cherry-picked, counter-screen for Shn3 inhibitor project, dose response (AID 624133). Format: functional.
The target of assay [10] is T1, Heat shock factor protein 1. Description: decrease of HSF1-responsive luciferase luminescence – cell-based, NIH3T3, dose retest, confirmation (AID 2382).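 Further: NIH3T3 fibroblasts with HSF1-driven luciferase reporter stressed by proteasome inhibitor MG132; luminescence from HSF1-driven luciferase expression after 8 hours of MG132 stress.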 Type of assay: functional.

Calls of active or inactive are those of the source. For most assays here, no stated cut-off is given here; in the data, actives have a measured EC50 and inactives only a lower limit.

Nonstructural protein 1, sequence (Q194T2 whole entry): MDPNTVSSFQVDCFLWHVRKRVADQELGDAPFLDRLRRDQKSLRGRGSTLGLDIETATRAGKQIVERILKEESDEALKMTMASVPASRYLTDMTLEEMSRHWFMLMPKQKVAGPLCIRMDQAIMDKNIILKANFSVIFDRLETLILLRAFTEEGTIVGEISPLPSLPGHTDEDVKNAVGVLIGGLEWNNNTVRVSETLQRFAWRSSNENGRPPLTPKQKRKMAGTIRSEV
Luciferin 4-monooxygenase, sequence (P08659 whole entry): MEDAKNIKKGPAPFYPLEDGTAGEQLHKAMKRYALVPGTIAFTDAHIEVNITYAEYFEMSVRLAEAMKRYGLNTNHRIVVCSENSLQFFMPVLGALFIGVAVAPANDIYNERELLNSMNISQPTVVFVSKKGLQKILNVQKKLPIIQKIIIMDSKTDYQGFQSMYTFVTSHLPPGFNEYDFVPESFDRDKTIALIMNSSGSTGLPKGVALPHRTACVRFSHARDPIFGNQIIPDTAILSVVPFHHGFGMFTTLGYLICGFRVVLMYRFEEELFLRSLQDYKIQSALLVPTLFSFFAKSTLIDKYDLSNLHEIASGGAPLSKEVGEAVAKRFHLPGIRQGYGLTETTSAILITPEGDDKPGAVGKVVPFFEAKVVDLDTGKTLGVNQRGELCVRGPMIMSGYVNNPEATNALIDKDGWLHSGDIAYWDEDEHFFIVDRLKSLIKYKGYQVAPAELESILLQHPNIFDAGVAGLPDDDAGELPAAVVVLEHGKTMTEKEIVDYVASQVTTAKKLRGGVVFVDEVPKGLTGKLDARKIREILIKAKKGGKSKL

With `CNc1nc2c(N)ncnc2n1[C@H]1O[C@@H](CO)[C@H](O)[C@@H]1O`, the results for the EC50 in assay [1] and in assay [2] were > 112 µM (not active) and 1.36 µM (active), respectively.
For the compound `COc1ccc2cc(S(=O)(=O)N3CCCCC3)ccc2c1S(=O)(=O)N1CCCCC1`, the EC50 in assay [3] was > 260 µM (inactive).
With `CCC(C)(C)c1ccc(OC(=O)c2cccnc2Cl)cc1`, in assay [3], the EC50 was 46.8 µM (active).
As for `COCc1cc(CN2CCCC(C(=O)Nc3ccc(-c4ccco4)cc3)C2)ccc1OC` (stereo unspecified), in assay [3], the EC50 was > 260 µM (inactive).
For `Cc1ccc2c(CC(=O)N3CCN(S(=O)(=O)c4cccs4)CC3)coc2c1`, the EC50 in [1] and in [2] was > 112 µM (not active) throughout.
Regarding `Cc1ccc(Cn2cc(S(=O)(=O)c3ccc(Cl)cc3)c(=O)c3cc(F)ccc32)cc1`, the EC50 in assay [3] was > 260 µM (inactive).
As to `CCc1c(C)sc(NC(=O)c2ccc(Br)o2)c1C(=O)OC`, the EC50 in assay [3] is > 260 µM (inactive).
Consider `O=C1C(NS(=O)(=O)c2cccs2)=C(N2CCN(c3ccccc3)CC2)C(=O)c2ccccc21`, for which the IC50 on Nonstructural protein 1 is 21.6 µM (active).
Same read-out and setting: next, `O=[N+]([O-])c1ccc(Nc2ccc(N3CCOCC3)cc2)c([N+](=O)[O-])c1`: 71.6 µM (active).
For `CN(C)c1ccc(C2CC(c3cccc(NS(C)(=O)=O)c3)=NN2C(=O)c2ccccc2)cc1` (stereo unspecified), the IC50 at Nonstructural protein 1 was > 100 µM (active).
On to `O=C(CSc1n[nH]c(-c2ccccn2)n1)Nc1cccc(Cl)c1`, for which the EC50 in assay [4] was 10.3 µM (active); in assay [5] it was 8.65 µM (active); in assay [6] it was 9 µM (active). Also, the IC50 at Nonstructural protein 1 was 8.24 µM (active). The values for the AC50 in [7], in assay [8] and in assay [9] were 2.9 µM (active), 3.81 µM (active) and 2.9 µM (active), respectively.
For `CCOC(=O)c1c(O)nc2ccccc2c1N1CCCCC1`, the EC50 is given as > 195 µM (not active) in [10], > 112 µM (not active) in assay [1] and > 112 µM (not active) in [2].
Take `COCc1nnc(NC(=O)CSCc2ccccc2)s1`: the EC50 in assay [1] and in assay [2] was > 112 µM (not active) throughout.
With `OCCN1CCN(CC(O)COc2ccc(Cl)cc2)CC1` (stereo unspecified), the EC50 in assay [1] and in assay [2] was > 112 µM (not active) throughout.
For the compound `CN(C1=C(N2CCCCC2)C(=O)c2ccccc2C1=O)c1ccccc1`, the IC50 on Nonstructural protein 1 was 6.94 µM (active).
Regarding `COc1ccc(P(=O)(COc2ccc([N+](=O)[O-])cc2)c2ccc(OC)cc2)cc1`, the EC50 in assay [1] and in assay [2] was > 112 µM (not active) in each case.
`CC(C)(C)NC(=O)c1cccc(NC(=O)CSc2ccc(Cl)cc2)c1`: the EC50 in [3] is > 260 µM (inactive).
For `O=C1CSC(=S)N1N=Cc1ccccc1O`, the IC50 at Nonstructural protein 1 was 1.75 µM (active).

The values are drawn from ChEMBL document CHEMBL1201862, “PubChem BioAssay data set” (2004).
